Measured values reported in ChEMBL document CHEMBL3871297, “Squarate-based carbocyclic nucleosides: Syntheses, computational analyses and anticancer/antiviral evaluation” (2017).

Tests used:
Type in all cases: functional
[1] = Cytotoxicity against human NCI-H226 cells assessed as cell growth at 10 uM after 2 days by SRB assay relative to control; conditions: NCI-H226, 48 h, read-out: Activity
[2] = Cytotoxicity against human HT-29 cells assessed as cell growth at 10 uM after 2 days by SRB assay relative to control; conditions: HT-29, 48 h, read-out: Activity
[3] = Cytotoxicity against human HCT116 cells assessed as cell growth at 10 uM after 2 days by SRB assay relative to control; conditions: HCT-116, 48 h, read-out: Activity
[4] = Cytotoxicity against human K562 cells assessed as cell growth at 10 uM after 2 days by SRB assay relative to control; conditions: K562, 48 h, read-out: Activity
[5] = Cytotoxicity against human SKOV3 cells assessed as cell growth at 10 uM after 2 days by SRB assay relative to control; conditions: SK-OV-3, 48 h, read-out: Activity
[6] = Cytotoxicity against human HOP92 cells assessed as cell growth at 10 uM after 2 days by SRB assay relative to control; conditions: HOP-92, 48 h, read-out: Activity
[7] = Cytotoxicity against human TK10 cells assessed as cell growth at 10 uM after 2 days by SRB assay relative to control; conditions: TK-10, 48 h, read-out: Activity
[8] = Cytotoxicity against human 786-0 cells assessed as cell growth at 10 uM after 2 days by SRB assay relative to control; conditions: 786-0, 48 h, read-out: Activity
[9] = Cytotoxicity against human OVCAR5 cells assessed as cell growth at 10 uM after 2 days by SRB assay relative to control; conditions: OVCAR-5, 48 h, read-out: Activity
[10] = Cytotoxicity against human NCI-H322M cells assessed as cell growth at 10 uM after 2 days by SRB assay relative to control; conditions: 48 h, read-out: Activity
[11] = Cytotoxicity against human LOXIMVI cells assessed as cell growth at 10 uM after 2 days by SRB assay relative to control; conditions: LOX IMVI, 48 h, read-out: Activity
[12] = Cytotoxicity against human MCF7 cells assessed as cell growth at 10 uM after 2 days by SRB assay relative to control; conditions: MCF7, 48 h, read-out: Activity
[13] = Cytotoxicity against human MDA-MB-435 cells assessed as cell growth at 10 uM after 2 days by SRB assay relative to control; conditions: MDA-MB-435, 48 h, read-out: Activity
[14] = Cytotoxicity against human COLO205 cells assessed as cell growth at 10 uM after 2 days by SRB assay relative to control; conditions: COLO 205, 48 h, read-out: Activity
[15] = Cytotoxicity against human A549 cells assessed as cell growth at 10 uM after 2 days by SRB assay relative to control; conditions: A549, 48 h, read-out: Activity
[16] = Cytotoxicity against human SNB19 cells assessed as cell growth at 10 uM after 2 days by SRB assay relative to control; conditions: SNB-19, 48 h, read-out: Activity
[17] = Cytotoxicity against human SW620 cells assessed as cell growth at 10 uM after 2 days by SRB assay relative to control; conditions: SW-620, 48 h, read-out: Activity
[18] = Cytotoxicity against human CCRF-CEM cells assessed as cell growth at 10 uM after 2 days by SRB assay relative to control; conditions: 48 h, read-out: Activity
[19] = Cytotoxicity against human Hs 578T cells assessed as cell growth at 10 uM after 2 days by SRB assay relative to control; conditions: 48 h, read-out: Activity
[20] = Cytotoxicity against human U251 cells assessed as cell growth at 10 uM after 2 days by SRB assay relative to control; conditions: U-251, 48 h, read-out: Activity
[21] = Cytotoxicity against human T47D cells assessed as cell growth at 10 uM after 2 days by SRB assay relative to control; conditions: 48 h, read-out: Activity
[22] = Cytotoxicity against human HCT15 cells assessed as cell growth at 10 uM after 2 days by SRB assay relative to control; conditions: HCT-15, 48 h, read-out: Activity
[23] = Cytotoxicity against human PC3 cells assessed as cell growth at 10 uM after 2 days by SRB assay relative to control; conditions: PC-3, 48 h, read-out: Activity
[24] = Cytotoxicity against human SNB75 cells assessed as cell growth at 10 uM after 2 days by SRB assay relative to control; conditions: SNB-75, 48 h, read-out: Activity
[25] = Cytotoxicity against human SF539 cells assessed as cell growth at 10 uM after 2 days by SRB assay relative to control; conditions: SF-539, 48 h, read-out: Activity
[26] = Cytotoxicity against human M14 cells assessed as cell growth at 10 uM after 2 days by SRB assay relative to control; conditions: M14, 48 h, read-out: Activity
[27] = Cytotoxicity against human SK-MEL-28 cells assessed as cell growth at 10 uM after 2 days by SRB assay relative to control; conditions: SK-MEL-28, 48 h, read-out: Activity
[28] = Cytotoxicity against human IGROV1 cells assessed as cell growth at 10 uM after 2 days by SRB assay relative to control; conditions: IGROV-1, 48 h, read-out: Activity
[29] = Cytotoxicity against human SF268 cells assessed as cell growth at 10 uM after 2 days by SRB assay relative to control; conditions: SF-268, 48 h, read-out: Activity
[30] = Cytotoxicity against human MALME-3M cells assessed as cell growth at 10 uM after 2 days by SRB assay relative to control; conditions: 48 h, read-out: Activity
[31] = Cytotoxicity against human UO31 cells assessed as cell growth at 10 uM after 2 days by SRB assay relative to control; conditions: UO-31, 48 h, read-out: Activity
[32] = Cytotoxicity against human OVCAR4 cells assessed as cell growth at 10 uM after 2 days by SRB assay relative to control; conditions: OVCAR-4, 48 h, read-out: Activity
[33] = Cytotoxicity against human RXF393 cells assessed as cell growth at 10 uM after 2 days by SRB assay relative to control; conditions: RXF 393, 48 h, read-out: Activity
[34] = Cytotoxicity against human SF295 cells assessed as cell growth at 10 uM after 2 days by SRB assay relative to control; conditions: SF-295, 48 h, read-out: Activity
[35] = Cytotoxicity against human MDA-MB-231 cells assessed as cell growth at 10 uM after 2 days by SRB assay relative to control; conditions: MDA-MB-231, 48 h, read-out: Activity
[36] = Cytotoxicity against human UACC62 cells assessed as cell growth at 10 uM after 2 days by SRB assay relative to control; conditions: UACC-62, 48 h, read-out: Activity
[37] = Cytotoxicity against human HL-60(TB) cells assessed as cell growth at 10 uM after 2 days by SRB assay relative to control; conditions: HL-60, 48 h, read-out: Activity
[38] = Cytotoxicity against human SN12C cells assessed as cell growth at 10 uM after 2 days by SRB assay relative to control; conditions: 48 h, read-out: Activity

COc1c(N[C@H]2C=C[C@@H](CO)C2)c(=O)c1=O showed a growth at 10 µM [1] of 105%, a growth at 10 µM [2] of 113% and a growth at 10 µM [3] of 95.7%. It also gave a growth at 10 µM [4] of 111%, a growth at 10 µM [5] of 110% and a growth at 10 µM [6] of 111%. For the same compound, the growth at 10 µM [7] was 105%, the growth at 10 µM [8] was 98.5% and the growth at 10 µM [9] was 100%. For the same compound, the growth at 10 µM [10] was 108%, the growth at 10 µM [11] was 97.8% and the growth at 10 µM [12] was 94.2%. It also gave a growth at 10 µM [13] of 118%, a growth at 10 µM [14] of 141% and a growth at 10 µM [15] of 97.8%. The growth at 10 µM [16] was 106%, the growth at 10 µM [17] was 105% and the growth at 10 µM [18] was 108%. It also gave a growth at 10 µM [19] of 114%, a growth at 10 µM [20] of 103% and a growth at 10 µM [21] of 106%. It also gave a growth at 10 µM [22] of 111%, a growth at 10 µM [23] of 101% and a growth at 10 µM [24] of 107%. The growth at 10 µM [25] was 101%, the growth at 10 µM [26] was 97.1% and the growth at 10 µM [27] was 125%. It also gave a growth at 10 µM [28] of 93%, a growth at 10 µM [29] of 112% and a growth at 10 µM [30] of 109%. For the same compound, the growth at 10 µM [31] was 88.3%, the growth at 10 µM [32] was 109% and the growth at 10 µM [33] was 126%. For the same compound, the growth at 10 µM [34] was 118%, the growth at 10 µM [35] was 110% and the growth at 10 µM [36] was 101%. It also gave a growth at 10 µM [37] of 96.4% and a growth at 10 µM [38] of 112%.
In the case of O=c1c(O)c(N[C@H]2C=C[C@@H](CO)C2)c1=O, the growth at 10 µM [1] is reported as 157%, the growth at 10 µM [2] is reported as 105% and the growth at 10 µM [3] is reported as 108%. For the same compound, the growth at 10 µM [4] was 104%, the growth at 10 µM [5] was 109% and the growth at 10 µM [6] was 121%. It also gave a growth at 10 µM [7] of 132%, a growth at 10 µM [8] of 102% and a growth at 10 µM [9] of 108%. The growth at 10 µM [10] was 120%, the growth at 10 µM [11] was 117% and the growth at 10 µM [12] was 107%. The growth at 10 µM [13] was 120%, the growth at 10 µM [14] was 134% and the growth at 10 µM [15] was 108%. For the same compound, the growth at 10 µM [16] was 105%, the growth at 10 µM [17] was 112% and the growth at 10 µM [18] was 116%. It also gave a growth at 10 µM [19] of 146%, a growth at 10 µM [20] of 112% and a growth at 10 µM [21] of 107%. The growth at 10 µM [22] was 134%, the growth at 10 µM [23] was 110% and the growth at 10 µM [24] was 103%. The growth at 10 µM [25] was 114%, the growth at 10 µM [26] was 111% and the growth at 10 µM [27] was 140%. The growth at 10 µM [28] was 111%, the growth at 10 µM [29] was 117% and the growth at 10 µM [30] was 115%. For the same compound, the growth at 10 µM [31] was 103%, the growth at 10 µM [32] was 102% and the growth at 10 µM [33] was 166%. It also gave a growth at 10 µM [34] of 73.5%, a growth at 10 µM [35] of 150% and a growth at 10 µM [36] of 118%. For the same compound, the growth at 10 µM [37] was 100% and the growth at 10 µM [38] was 120%.
For Nc1c(N[C@H]2C=C[C@@H](CO)C2)c(=O)c1=O, the growth at 10 µM [1] was 107%, the growth at 10 µM [2] was 110% and the growth at 10 µM [3] was 108%. The growth at 10 µM [4] was 99.6%, the growth at 10 µM [5] was 112% and the growth at 10 µM [6] was 104%. The growth at 10 µM [7] was 115%, the growth at 10 µM [8] was 106% and the growth at 10 µM [9] was 106%. The growth at 10 µM [10] was 106%, the growth at 10 µM [11] was 96.4% and the growth at 10 µM [12] was 101%. For the same compound, the growth at 10 µM [13] was 114%, the growth at 10 µM [14] was 121% and the growth at 10 µM [15] was 97.9%. It also gave a growth at 10 µM [16] of 110%, a growth at 10 µM [17] of 105% and a growth at 10 µM [18] of 89.3%. It also gave a growth at 10 µM [19] of 129%, a growth at 10 µM [20] of 103% and a growth at 10 µM [21] of 105%. For the same compound, the growth at 10 µM [22] was 103%, the growth at 10 µM [23] was 103% and the growth at 10 µM [24] was 111%. For the same compound, the growth at 10 µM [25] was 98.3%, the growth at 10 µM [26] was 101% and the growth at 10 µM [27] was 128%. It also gave a growth at 10 µM [28] of 96.2%, a growth at 10 µM [29] of 165% and a growth at 10 µM [30] of 100%. For the same compound, the growth at 10 µM [31] was 84.6%, the growth at 10 µM [32] was 111% and the growth at 10 µM [33] was 143%. For the same compound, the growth at 10 µM [34] was 128%, the growth at 10 µM [35] was 113% and the growth at 10 µM [36] was 98.3%. The growth at 10 µM [37] was 96.7% and the growth at 10 µM [38] was 105%.
